# Results reported in US11384106B2, “Metal tricarbonyl complexes comprising substituted iminodiactic acid ligands and uses as radioisotope tracers” (priority 2015, dated 2022).
# Experiments:
# erythrocyte = experiment: Erythrocyte uptake (RCB) from 10 min blood samples; assay type: in vitro ADME; conditions: rats
# Procedure: (§1) ^99mTc(CO)^3(FEDA) was evaluated in rats using ^131I-OIH as an internal control; urine was analyzed for metabolites. Plasma protein binding (PPB) and erythrocyte uptake (RCB) were determined from the 10 min blood samples. The Re(CO)3 analog was prepared for structural characterization.
# plasma protein = experiment: Plasma protein binding (PPB) from 10 min blood samples; assay type: in vitro ADME; conditions: rats
# Procedure: as §1
# [1] = Stability of ^99mTc tracer at physiological pH / physiological conditions
# [2] = Evaluation in rats using ^131I-OIH as internal control (blood clearance, renal excretion, urine metabolites); assay type: in vivo; conditions: for % injected dose in the urine, as % of that of ^131I-OIH: relative to ^131I-OIH internal control
# Procedure: as §1
# [3] = relative to ^131I-OIH; cited from earlier work
# [4] = Stability of ^18F radiotracer solution (pH 7) by HPLC; assay type: physicochemical; conditions: incubated for 23 hours
# Procedure: Re(CO)3(^18FFEDA) (3) was prepared by reacting the corresponding tosyl precursor, rheniumtricarbonyl-N-ethyltosylate iminodiacetate, Re(CO)3(TsDA), with [18F]fluoride ion (^18F) in anhydrous acetonitrile in the presence of K2CO3 and Kryptofix 222 at 110° C. for 20 min in a chemical processing control unit (CPCU). The resulting radiolabeled product was purified by semi-preparative high performance liquid chromatography (HPLC) using a Waters XTerra Prep RP 18 column (5 jam, 19×100 mm) and eluted with a mobile phase of 0.05 M triethylammonium phosphate (TEAP) buffer (pH=7)/ethanol (80:20 v/v) at a flow rate of 6 mL/min. The solution of the ^18F radiotracer (pH 7) was analyzed by HPLC for stability for up to 23 h.
compound,measurement,setting,value
^99mTc(CO)3(N-(2-fluoroethyl)iminodiacetate) [^99mTc(CO)3(FEDA)],Erythrocyte uptake (RCB),erythrocyte,20%
same,Plasma protein binding (PPB),plasma protein,61%
same,Stability (time stable),[1]; physiological conditions,at least 1 d
same,Stability (time stable),[1]; physiological pH,≥ 24 h
same,Clearance compared with ^131I-OIH,[2]; compared with gold standard ^131I-OIH,comparable to the gold standard
same,Renal excretion,"[2]; rat studies, compared with ^99mTc-MAG3",rapid renal excretion
same,Blood clearance,[2]; rats,rapid blood clearance
same,Specificity for renal excretion,[2]; rats,high specificity for renal excretion
same,Uptake in other organs,[2]; rats,lack of significant uptake in other organs
same,"% injected dose in the urine, as % of that of ^131I-OIH","[2]; rats, 10 min after injection",100%
same,"% injected dose in the urine, as % of that of ^131I-OIH","[2]; rats, 60 min after injection",99%
same,Metabolites in urine (form in which the tracer is excreted),"[2]; rats, urine analyzed for metabolites",secreted intact in the urine
"O=C([O-])CN=C([O-])CN=C([O-])CN=C([O-])C[S-].[O-2].[Tc+4] [^99mTc-MAG3, ^99mTc-mercaptoacetyltriglycine]",Clearance compared to ^131I-OIH,[3],50-65%
Re(CO)3(N-(2-^18fluoroethyl)iminodiacetate) [Re(CO)3(^18FFEDA)],Stability by HPLC analysis after incubation,[4],only intact
